Structures are written as SMILES.

In ChEMBL document CHEMBL3045372, “Biososteric Replacement in the Design and Synthesis of Ligands for Nicotinic Acetylcholine Receptors” (Med Chem Res, 2005) one finds inhibition and Ki data, which are given here for 14 molecules.

Experiment [1] has as its target Neuronal acetylcholine receptor; alpha4/beta2 (Rattus norvegicus) (UniProt P09483+P12390). Kind of experiment: Displacement of [3H]cytisine from alpha4beta2 nicotinic acetylcholine receptor in Rattus norvegicus (rat) cerebral cortex at 10 uM after 75 min by scintillation counting. It counts as tissue-based.
Experiment [2] concerns the target T1, Neuronal acetylcholine receptor; alpha4/beta2 (Homo sapiens, UniProt P17787+P43681). Kind of experiment: Displacement of [3H]nicotine from Homo sapiens (human) alpha4beta2 nicotinic acetylcholine receptor expressed in Homo sapiens (human) SH-EP1 cells after 2.5 min by scintillation counting. It counts as cell-based.
For experiment [3], the target named is T1, Neuronal acetylcholine receptor; alpha4/beta2. Description: Inhibition of alpha4beta2 nicotinic acetylcholine receptor (unknown origin). It counts as protein-complex assay.

T1 sequence (P17787 whole entry): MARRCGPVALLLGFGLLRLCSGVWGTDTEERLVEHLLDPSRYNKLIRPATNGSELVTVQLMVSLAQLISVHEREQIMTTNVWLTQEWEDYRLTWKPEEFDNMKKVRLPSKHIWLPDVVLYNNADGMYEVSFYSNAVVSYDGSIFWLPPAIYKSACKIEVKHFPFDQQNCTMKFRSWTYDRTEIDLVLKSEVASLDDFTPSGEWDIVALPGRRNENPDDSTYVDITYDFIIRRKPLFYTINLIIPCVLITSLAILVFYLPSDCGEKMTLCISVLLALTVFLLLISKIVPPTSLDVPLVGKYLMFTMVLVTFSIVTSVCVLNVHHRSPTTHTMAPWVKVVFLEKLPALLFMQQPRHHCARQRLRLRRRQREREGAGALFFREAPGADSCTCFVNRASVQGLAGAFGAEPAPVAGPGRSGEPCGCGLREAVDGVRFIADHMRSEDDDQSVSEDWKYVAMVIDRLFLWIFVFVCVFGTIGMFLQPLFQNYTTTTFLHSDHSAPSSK
T1 sequence (P43681 whole entry): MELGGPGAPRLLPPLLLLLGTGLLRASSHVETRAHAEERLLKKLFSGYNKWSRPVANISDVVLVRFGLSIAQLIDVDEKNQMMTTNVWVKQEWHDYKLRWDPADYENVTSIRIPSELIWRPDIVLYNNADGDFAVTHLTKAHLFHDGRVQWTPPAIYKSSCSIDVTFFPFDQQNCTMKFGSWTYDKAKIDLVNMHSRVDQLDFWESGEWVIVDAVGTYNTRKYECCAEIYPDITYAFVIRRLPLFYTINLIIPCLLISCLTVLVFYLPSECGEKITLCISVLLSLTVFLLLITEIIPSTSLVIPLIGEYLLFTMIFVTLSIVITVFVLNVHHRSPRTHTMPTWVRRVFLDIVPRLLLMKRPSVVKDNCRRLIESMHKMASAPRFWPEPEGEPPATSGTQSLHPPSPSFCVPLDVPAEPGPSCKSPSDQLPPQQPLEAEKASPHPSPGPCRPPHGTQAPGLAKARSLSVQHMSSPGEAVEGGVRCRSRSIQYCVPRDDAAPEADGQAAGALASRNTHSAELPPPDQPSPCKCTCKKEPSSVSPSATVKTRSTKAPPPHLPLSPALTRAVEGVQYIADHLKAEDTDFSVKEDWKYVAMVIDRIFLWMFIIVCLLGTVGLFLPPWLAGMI

Consider `CC(C)N(CCOc1cccc([N+](=O)[O-])c1)C(C)C`, for which the inhibition in experiment [1] turned out to be 0%.
With `CN(C)CCOc1cccc([N+](=O)[O-])c1`, the Ki in experiment [2] (read-out: Ki) turned out to be 3390 nM. In addition, in experiment [1], the inhibition was 33%.
In experiment [3], `Oc1cccc(OC[C@@H]2CC3CCN2CC3)c1` displayed a Ki of 4 nM.
For the molecule `Oc1cccc(OCCN(c2ccccc2)c2ccccc2)c1`, the inhibition in experiment [1] amounted to 0%.
`O=[N+]([O-])c1cccc(OCCN(c2ccccc2)c2ccccc2)c1` gave an inhibition in experiment [1] of 0%.
As for `CN(C)CCOc1cccnc1`, the Ki in experiment [2] (read-out: Ki) was 300 nM. In addition, the inhibition in experiment [1] was found to be 95%.
The molecule `O=[N+]([O-])c1cccc(OC[C@@H]2CC3CCN2CC3)c1` came in with an inhibition constant (Ki) in experiment [3] of 734 nM.
In the case of `CCCN(CCC)CCOc1cccc([N+](=O)[O-])c1`, the Ki entry in experiment [2] (sh-ep1) is given as “Not Active”. The molecule further had an inhibition in experiment [1] of 21%.
Regarding `CC(C)N(CCOc1cccnc1)C(C)C`, the inhibition entry in experiment [2] is “Dose-dependent effect”; in experiment [1], 64%. In addition, in experiment [2] (read-out: Ki), the Ki stood at 11200 nM.
`CC(C)N(CCOc1cccc(O)c1)C(C)C`: in experiment [1], the inhibition was 0%.
`Cc1c(O)cccc1OCCN(c1ccccc1)c1ccccc1` gave an inhibition in experiment [1] of 0%.
Regarding `c1ccc(N(CCOc2cccnc2)c2ccccc2)cc1`, the inhibition in experiment [1] amounted to 0%.
On to `CN(C)CCOc1cccc(O)c1`, for which the Ki in experiment [2] (read-out: Ki) came out at 360 nM.
Take `CN(C)CCOc1cncc(Cl)c1`: the Ki in experiment [2] (read-out: Ki) worked out at 450 nM. Moreover, in experiment [1], the inhibition was determined as 84%.
